Measurements: patent US11707557B2, “Compositions and devices incorporating water-insoluble therapeutic agents and methods of the use thereof” (COOK MEDICAL TECHNOLOGIES LLC, priority 2014, dated 2023)

What was measured:
[1] = tested on: canine kidney (mdck) cells; experiment: Uptake of paclitaxel into mdck cells with or without EGCG; type: cell-based
[2] = tested on: pig bladder tissue; experiment: Uptake of paclitaxel into pig bladder tissue from methoxypolyethylene glycol pastes with EGCG or tannic acid; type: in vitro ADME; settings: MEPEG paste with EGCG or tannic acid, 5% drug, urothelial or perivascular side, 2 hours
Method: Methods: Fresh ex vivo pig bladders were cut into 2 cm diameter pieces and laid on franz diffusions cells. […] 100 mg of paste was applied to either the perivascular or urothelial side of the bladder tissue and 200 ul of tyrodes buffer pH 7.4 was added. The tissue was incubated for 2 hours at 37° C. and then the diffusion cell was disassembled, the tissue was washed free of remaining paste with excess tyrodes and the tissues were then frozen and cryosectioned for radioactivity counting by liquid scintillation methods.

[3] = tested on: Human umbilical vein endothelial cells (HUVEC); experiment: Accumulation of docetaxel in HUVEC cells and effect of ultrasound; type: cell-based
Excerpt: Human umbilical vein endothelial cells (HUVEC) and the associated culture media were obtained from Lonza Chemicals (Basel, Switzerland). All cells were applied to 48 well plates in respective media at a concentration of 5000 cells per well or filter. The cells were allowed to equilibrate for 3 days at which time they became approximately 80% confluent. In the 48 well plates, only 24 wells were used per plate so that wells with cells appeared in a checkerboard pattern.
After 2 days, cells were ready for drug incubation with or without ultrasound treatment. The drug solutions (including radiolabelled docetaxel) were applied to the cells (0.5 ml) for 2 hours. Some cells were then ultrasonicated. Briefly, cells received a single 10-s burst of ultrasound at 4 MHz with a power density of 30 W/cm^2.
After ultrasound treatment, the drug solution was immediately removed and all cells were washed three times with 500 ul of HBSS. The amount of docetaxel retained in the cells was determined by lysing the cells in 200 ul of lysis buffer (2% Triton X100 containing 33% DMSO) and quantitation by liquid scintillation counting.

Structure (SMILES)	paclitaxel level in cells ([1]; co-incubated with EGCG at 50 microg/ml) [pg/mg]	paclitaxel level in cells ([1]; paclitaxel alone)	increase in drug uptake with EGCG ([1]; with EGCG versus alone) [fold]	penetration of paclitaxel into the bladder tissue [2]	effect of ultrasound on uptake of drug into cells ([3]; 10-s burst, 4 MHz, 30 W/cm^2, all formulations)	uptake of docetaxel from ECGC formulations relative to micellar formulation ([3]; 2 hours incubation)
CC(=O)O[C@H]1C(=O)[C@@]2(C)[C@H]([C@H](OC(=O)c3ccccc3)[C@]3(O)C[C@H](OC(=O)[C@H](O)[C@@H](NC(=O)c4ccccc4)c4ccccc4)C(C)=C1C3(C)C)[C@]1(OC(C)=O)CO[C@@H]1C[C@@H]2O [paclitaxel]	≤ 2000	approximately 200 pg/mg cellular protein	10	allowed for the penetration		
CC(=O)O[C@@]12CO[C@@H]1C[C@H](O)[C@@]1(C)C(=O)[C@H](O)C3=C(C)[C@@H](OC(=O)[C@H](O)[C@@H](NC(=O)OC(C)(C)C)c4ccccc4)C[C@@](O)([C@@H](OC(=O)c4ccccc4)[C@H]21)C3(C)C [docetaxel]					increased the uptake	approximately 4 fold
